Article PMC8057513, “Comparison of edible brown algae extracts for the inhibition of intestinal carbohydrate digestive enzymes involved in glucose release from the diet” (Journal of Nutritional Science, 2021)
In brackets after ≈: the same amount, converted by molar mass.

Assays:
Assay type in all cases: biochemical
[1] = target: T1, maltase (rat intestinal α-glucosidase); test: maltose hydrolysis, released glucose by HPAEC-PAD; Dixon plot; conditions: maltose 1.25-5 mM, pH 6.9, 37 °C; competitive; crude intestinal extract
T1 construct: gene Mgam; crude phosphate-buffer supernatant of rat intestinal acetone powder (Sigma-Aldrich, labelled EC 3.2.1.48), not purified; maltose-hydrolysing activity of mixed brush-border alpha-glucosidases
From the text: maltose hydrolysis, released glucose by HPAEC-PAD; Dixon plot on maltase (rat intestinal α-glucosidase)

[2] = target: T1, maltase (rat intestinal α-glucosidase); test: maltose hydrolysis, released glucose by HPAEC-PAD; conditions: 10 mM maltose, phosphate buffer 100 mM pH 6.9, 37 °C, 30 min; crude intestinal extract
From the text: maltose hydrolysis, released glucose by HPAEC-PAD on maltase (rat intestinal α-glucosidase)

[3] = system: T1, maltase (rat intestinal α-glucosidase); test: maltose hydrolysis, released glucose by HPAEC-PAD; Lineweaver-Burk plot; conditions: phosphate buffer 100 mM pH 6.9, 37 °C; crude intestinal extract

SMILES | Ki [1] [µg/mL] | IC50 [2] [µg/mL] | Km [3] [mM]
C[C@H]1O[C@H](O[C@H]2[C@H](O)[C@@H](O)[C@@H](O[C@H]3[C@H](O)[C@@H](O)C(O)O[C@@H]3CO)O[C@@H]2CO)[C@H](O)[C@@H](O)[C@@H]1N[C@H]1C=C(CO)[C@@H](O)[C@H](O)[C@H]1O (stereo partly drawn) [Acarbose] | 0.07 (≈ 0.108 µM) | 0.15 ± 0.02 (≈ 0.232 µM) | 
OC[C@H]1O[C@H](O[C@H]2[C@H](O)[C@@H](O)C(O)O[C@@H]2CO)[C@H](O)[C@@H](O)[C@@H]1O (stereo partly drawn) [maltose] |  |  | 5.8
